# Source: ChEMBL document CHEMBL1201862, “PubChem BioAssay data set” (2004)
#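 Briefly, cells in 96-well plates were exposed to five compound concentrations for 48 h, and endpoints were estimated by linear interpolation. GI50 = concentration required for 50% inhibition of growth.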 The source made the active and inactive calls. Rule as the data show it: active = GI50 up to about 1.1 µM and inactive = higher.
# Tests used:
# Test in all cases: inhibition of tumour cell growth, NCI panel, 48 h
# SF-539 = system: SF-539
# SK-MEL-2 = system: SK-MEL-2
# SK-OV-3 = system: SK-OV-3
# A549 = system: A549
# HT-29 = system: HT-29
# SNB-75 = system: SNB-75
# SF-295 = system: SF-295
# OVCAR-5 = system: OVCAR-5
# HCT-15 = system: HCT-15
# SR = system: SR
# IGROV-1 = system: IGROV-1
# UACC-257 = system: UACC-257
# HCT-116 = system: HCT-116
# TK-10 = system: TK-10
# SW-620 = system: SW-620
# HCC 2998 = system: HCC 2998
# SK-MEL-28 = system: SK-MEL-28
# NCI/ADR-RES = system: NCI/ADR-RES
# UO-31 = system: UO-31
# HOP-92 = system: HOP-92
Structure (SMILES),GI50 (SF-539),GI50 (SK-MEL-2),GI50 (SK-OV-3),GI50 (A549),GI50 (HT-29),GI50 (SNB-75),GI50 (SF-295),GI50 (OVCAR-5),GI50 (HCT-15) [µM],GI50 (SR),GI50 (IGROV-1),GI50 (UACC-257),GI50 (HCT-116),GI50 (TK-10),GI50 (SW-620),GI50 (HCC 2998),GI50 (SK-MEL-28),GI50 (NCI/ADR-RES),GI50 (UO-31),GI50 (HOP-92)
Cc1nc(Cl)c(C)c(Cl)n1,> 100 µM (inactive),> 100 µM (inactive),> 100 µM (inactive),> 100 µM (inactive),> 44.7 µM (inactive),> 100 µM (inactive),> 100 µM (inactive),> 100 µM (inactive),> 63.4,0.254 µM (active),15.9 µM (inactive),> 100 µM (inactive),> 100 µM (inactive),> 100 µM (inactive),> 55.8 µM (inactive),99.1 µM (inactive),> 93.3 µM (inactive),> 53 µM (inactive),–,–
CC1C(=O)C(C)C(c2ccco2)N(N=O)C1c1ccco1 (configuration not stated),> 100 µM (inactive),> 100 µM (inactive),> 100 µM (inactive),> 100 µM (inactive),> 100 µM (inactive),> 82.8 µM (inactive),> 100 µM (inactive),> 100 µM (inactive),> 100,–,> 100 µM (inactive),> 100 µM (inactive),> 100 µM (inactive),–,> 100 µM (inactive),> 100 µM (inactive),> 100 µM (inactive),> 100 µM (inactive),> 100 µM (inactive),> 68.4 µM (inactive)
O=C1CCC(=O)C1=NNc1ccccc1,> 100 µM (inactive),> 100 µM (inactive),> 100 µM (inactive),> 100 µM (inactive),> 100 µM (inactive),> 100 µM (inactive),> 100 µM (inactive),> 100 µM (inactive),> 100,–,> 100 µM (inactive),> 100 µM (inactive),> 100 µM (inactive),> 100 µM (inactive),> 100 µM (inactive),> 100 µM (inactive),> 100 µM (inactive),–,> 100 µM (inactive),> 100 µM (inactive)
COc1ccc(-c2cc(O)c3c(C)ccnc3n2)cc1,17.4 µM (inactive),7.6 µM (inactive),23 µM (inactive),10.3 µM (inactive),4.93 µM (inactive),–,–,20.5 µM (inactive),5.61,–,5.64 µM (inactive),33.7 µM (inactive),–,41.1 µM (inactive),4.81 µM (inactive),22.5 µM (inactive),15.3 µM (inactive),20.2 µM (inactive),27.8 µM (inactive),–
Cc1nc(O)nc(O)c1/C=C/C(=O)O,> 1000 µM (inactive),> 1000 µM (inactive),> 1000 µM (inactive),> 1000 µM (inactive),> 1000 µM (inactive),> 1000 µM (inactive),> 1000 µM (inactive),> 891 µM (inactive),> 1000,–,> 1000 µM (inactive),> 1000 µM (inactive),> 1000 µM (inactive),–,> 1000 µM (inactive),> 1000 µM (inactive),> 1000 µM (inactive),> 1000 µM (inactive),> 1000 µM (inactive),56.6 µM (inactive)
CCc1c(-c2ccc(OC)cc2)oc(OC)c(C)c1=O,> 100 µM (inactive),> 100 µM (inactive),> 100 µM (inactive),79.1 µM (inactive),91.4 µM (inactive),33.2 µM (inactive),> 100 µM (inactive),> 100 µM (inactive),> 100,–,> 100 µM (inactive),65.6 µM (inactive),55.1 µM (inactive),> 100 µM (inactive),> 100 µM (inactive),> 100 µM (inactive),> 100 µM (inactive),49 µM (inactive),64.6 µM (inactive),97.1 µM (inactive)
C=C1C(=O)OC2C[C@@]3(C)CCCC(=C)C3CC12 (some centres not stated),1.95 µM (inactive),3.91 µM (inactive),19.5 µM (inactive),12.2 µM (inactive),7.14 µM (inactive),7.23 µM (inactive),11.4 µM (inactive),19.5 µM (inactive),10.9,> 100 µM (inactive),19 µM (inactive),10.3 µM (inactive),4.05 µM (inactive),11.4 µM (inactive),3.92 µM (inactive),13.6 µM (inactive),11.7 µM (inactive),–,4.98 µM (inactive),4.26 µM (inactive)
CC(=O)c1c(-c2ccco2)c(C#N)c(=S)n(C2OC(CO)C(O)C(O)C2O)c1-c1ccccc1 (configuration not stated),45.2 µM (inactive),–,> 100 µM (inactive),> 100 µM (inactive),> 100 µM (inactive),69.7 µM (inactive),52.7 µM (inactive),> 100 µM (inactive),73.3,68.7 µM (inactive),> 100 µM (inactive),> 100 µM (inactive),66.2 µM (inactive),> 100 µM (inactive),76 µM (inactive),–,38.9 µM (inactive),55.1 µM (inactive),51.2 µM (inactive),–
